The target of one assay is T1, cdk2/cyclin E (Homo sapiens, UniProt P24941).
T1 construct: made in house; host or cells: insect cells (baculovirus co-infection)
The assay can be described thus: Cyclin-Dependent Kinase 2 Assay (cdk-2 inhibition). As to conditions: GST-Rb substrate, 30 min at 30° C. The assay is classed as biochemical. The procedure, abridged: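 GST-Rb bound to glutathione-Sepharose beads (0.5 μg/well) as substrate in 50 mM HEPES pH 7.5, 10 mM MgCl2, 1 mM EGTA. Recombinant cdk2/cyclin E at 0.1 μg per 100 μl, 30 min at 30 °C. Reaction stopped by filtration, TNEN washes, scintillation counting.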

The next assay deals with T2, cdk4/cyclin D1 (Homo sapiens, UniProt P11802).
T2 construct: made in house; host or cells: Sf9 insect cells (Bac-to-Bac baculovirus, pFastBac)
T2 sequence (P11802 whole entry): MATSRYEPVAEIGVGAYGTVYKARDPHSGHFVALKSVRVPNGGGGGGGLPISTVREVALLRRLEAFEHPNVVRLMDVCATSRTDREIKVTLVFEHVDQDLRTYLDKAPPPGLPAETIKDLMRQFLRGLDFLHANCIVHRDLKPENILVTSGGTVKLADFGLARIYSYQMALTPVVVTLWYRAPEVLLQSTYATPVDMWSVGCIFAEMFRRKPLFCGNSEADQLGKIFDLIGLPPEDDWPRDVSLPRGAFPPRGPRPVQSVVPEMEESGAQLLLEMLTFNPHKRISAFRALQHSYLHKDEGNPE
T2 sequence (P24385 whole entry partner): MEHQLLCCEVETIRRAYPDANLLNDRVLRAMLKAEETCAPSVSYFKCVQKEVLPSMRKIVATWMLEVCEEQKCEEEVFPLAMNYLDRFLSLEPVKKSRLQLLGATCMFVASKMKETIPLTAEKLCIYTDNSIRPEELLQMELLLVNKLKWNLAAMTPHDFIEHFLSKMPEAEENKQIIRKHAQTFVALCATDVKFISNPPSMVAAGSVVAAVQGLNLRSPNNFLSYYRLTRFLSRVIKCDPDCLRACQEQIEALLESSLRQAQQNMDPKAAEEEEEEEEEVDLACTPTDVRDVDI
Nature of the assay: Cyclin-dependent kinase 4 Assay. As to conditions: cdk4/cyclin D1, GST-Rb substrate, 10 μM ATP, 30 min at 37° C.; read-out: CDK4 Inhibition IC50. The assay is classed as biochemical. The essentials:
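Insect-cell lysate of coexpressed human cdk4/cyclin D1 (0.1 μg) phosphorylated bead-bound GST-Rb (0.5 μg) in 50 mM HEPES pH 7.5, 10 mM MgCl2, 1 mM EGTA for 30 min at 37 °C. Filters were washed with TNEN and scintillation-counted; IC50 values derived.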

The next assay has as its system MDA-MB-231. Nature of the assay: In vitro tumor cell proliferation, MDA-MB-231. The assay is classed as cell-based, human. As to conditions: read-out: In vitro Tumor Cell Proliferation (IC50, μM) Breast MDA-MB-231. The essentials:
(§1)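 SRB read-out: 3-day drug exposure, medium and drug renewed, 4 further days, TCA fixation at 4° C, 0.4% SRB stain. CyQUANT alternative: 3-day drug exposure, then plates frozen at −80° C ≥30 min. Cells plated overnight at 37° C before dosing.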

The next assay concerns HT-29. Nature of the assay: In vitro tumor cell proliferation, HT-29. The assay is classed as cell-based, human. The settings on record: read-out: In vitro Tumor Cell Proliferation (IC50, μM) Colon HT-29 (converted). The procedure, abridged:
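HT-29 human colon adenocarcinoma cells plated overnight at 37° C., then exposed to drug for 3 days, medium with fresh drug replaced for a further 4 days. Cells fixed with 10% TCA and stained with 0.4% sulforhodamine B; alternatively, CyQUANT read after 3 days of drug exposure.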

Another assay relates to HCT-15. Nature of the assay: In vitro tumor cell proliferation, HCT-15. The assay is classed as cell-based, human. As to conditions: read-out: In vitro Tumor Cell Proliferation (IC50, μM) Colon HCT-15. The protocol: The proliferation of tumor cells was measured using a sulforhodamine B assay as described in Skehan, P., et al., J. Natl. Cancer Inst. […] Tumor cells were harvested with trypsin-EDTA, cells that excluded trypan blue were counted, added to 96-well plates and incubated overnight at 37° C. Drug was added to the wells following dilution in culture medium. Three days later, the medium was removed and replenished with medium containing fresh drug and incubated an additional 4 days. The cells were then fixed with 0.1 ml 10% trichloroacetic acid for 60 min at 4° C. The plates were rinsed five times with tap water, air-dried and stained for 30 min with 0.4% sulforhodamine B in 1% acetic acid and air-dried.
Alternatively, the CyQUANT cell proliferation assay was used to quantify tumor cell proliferation. Tumor cells were harvested with trypsin-EDTA, cells that excluded trypan blue were counted, added to 96-well plates and incubated overnight at 37° C. Drug was added to the wells following dilution in culture medium. Three days later the medium was removed and the plates frozen at −80° C. for at least 30 minutes.

For the next assay, the system named is DMS-114. The assay can be described thus: In vitro tumor cell proliferation, DMS-114. The assay is classed as cell-based, human. As to conditions: read-out: In vitro Tumor Cell Proliferation (IC50, μM) Lung DMS-114. The essentials: as §1
Another assay has as its system PC-3. Nature of the assay: In vitro tumor cell proliferation, PC-3. The settings on record: read-out: In vitro Tumor Cell Proliferation (IC50, μM) Prostate PC-3. The class given is cell-based, human. The essentials: as §1
A further assay deals with DU 145. Nature of the assay: In vitro tumor cell proliferation, DU 145. The assay is classed as cell-based, human. The settings on record: read-out: In vitro Tumor Cell Proliferation (IC50, μM) Prostate DUI45. The essentials:
as §1

A further assay concerns A549. Nature of the assay: In vitro tumor cell proliferation, A549. The settings on record: read-out: In vitro Tumor Cell Proliferation (IC50, μM) Lung A549. The assay is classed as cell-based, human. The essentials:
as §1

A further assay concerns MDA-MB-435. Nature of the assay: In vitro tumor cell proliferation, MDA-MB-435. The class given is cell-based, human. The settings on record: read-out: In vitro Tumor Cell Proliferation (IC50, μM) Breast MDA-MB-435. The essentials: as §1
Another assay relates to Colo-205. Nature of the assay: In vitro tumor cell proliferation, Colo-205. The class given is cell-based, human. As to conditions: read-out: In vitro Tumor Cell Proliferation (IC50, μM) Colon Colo-205. The essentials:
as §1

[1] abbreviates: Homo sapiens, MDA-MB-231, values without *.
Where [2] appears, read: Homo sapiens, HT-29, values without *.
The mark [3] stands for this setting: values without *, dihydrochloride.
Where [4] appears, read: Homo sapiens, HCT-15, values without *.
The mark [5] stands for this setting: Homo sapiens, DMS-114, values without *.
Setting [6] is: Homo sapiens, PC-3, values without *.
Setting [7] is: Homo sapiens, DU-145, values without *.
Setting [8] is: Homo sapiens, A549, values without *.
[9] abbreviates: values marked * (mark not explained), dihydrochloride.

Values joined by “and” are separate entries in the source; they are usually repeats but may differ in a detail not shown here. Equal values may be shown once. Where a name gives a salt, the structure may show the parent alone. Read-outs that look alike come from different tables or passages of the source.

As to `Cc1cccc(CNc2nc(N[C@H]3CC[C@H](N)CC3)nc3c2ncn3C2CCCC2)c1` [Example 11, 2-[Trans-(4-aminocyclohexyl)amino]-6-[(3-methylbenzyl)amino]-9-cyclopentylpurine dihydrochloride], the IC50 is 0.15 µM against cdk2/cyclin E; 11 µM and 7.4 µM on cdk4/cyclin D1; 7.4 µM in the assay with MDA-MB-231 (setting [1]); 8.2 µM with HT-29 (setting [2]); 11 µM in the assay with HT-29 (setting [3]); 11 µM in the assay on HCT-15 (setting [4]). Besides, the IC50 with DMS-114 (setting [5]) was found to be 4.5 µM; in the assay with DMS-114 (setting [3]), 7.1 µM; in the assay with PC-3 (setting [6]) it was 5.8 µM; in the assay with PC-3 (setting [3]), 4.2 µM; with DU 145 (setting [7]), 4.8 µM; in the assay on DU 145 (setting [3]) it was 8 µM.

For `N[C@H]1CC[C@H](Nc2nc(NCC3CCCCC3)c3ncn(C4CCCC4)c3n2)CC1` [Example 22, 2-[Trans-(4-aminocyclohexyl)amino]-6-[(cyclohexyl)methylamino]-9-cyclopentylpurine dihydrochloride], the IC50 against cdk2/cyclin E is 0.52 µM; on cdk4/cyclin D1, 24 µM and 63 µM; in the assay with MDA-MB-231 (setting [1]), 8.6 µM; in the assay with HT-29 (setting [2]), 16 µM; in the assay with HT-29 (setting [3]) it was 12 µM; in the assay with HCT-15 (setting [4]) it was 17 µM. For the same molecule, the IC50 in the assay on HCT-15 (setting [3]) was 15 µM; in the assay on A549 (setting [8]), 8 µM; in the assay on DMS-114 (setting [5]), 9 µM; in the assay with DU 145 (setting [7]), 7.5 µM; in the assay on DU 145 (setting [3]), 11 µM.

For `N[C@H]1CC[C@H](Nc2nc(NCc3ccc(Cl)cc3)c3ncn(C4CCCC4)c3n2)CC1` [Example 27, 2-[Trans-(4-aminocyclohexyl)amino]-6-[(4-chlorobenzyl)amino]-9-cyclopentylpurine dihydrochloride], the IC50 at cdk2/cyclin E is 0.44 µM; at cdk4/cyclin D1, 17 µM and 9 µM; with MDA-MB-231 (setting [1]), 7 µM; with HT-29 (setting [2]), 16 µM; in the assay on HCT-15 (setting [3]) it was 15 µM; with A549 (setting [8]) it was 8.4 µM. The IC50 in the assay with A549 (setting [3]) stood at 11 µM; with DMS-114 (setting [5]) it was 9.5 µM; in the assay on DMS-114 (setting [3]), 6.8 µM; in the assay on PC-3 (setting [6]) it was 8.7 µM; in the assay on DU 145 (setting [7]) it was 7.2 µM; in the assay with DU 145 (setting [3]), 11 µM.

Regarding `N[C@H]1CC[C@H](Nc2nc(NCc3cccc(Cl)c3)c3ncn(C4CCCC4)c3n2)CC1` [Example 29, 2-[Trans-(4-aminocyclohexyl)amino]-6-[(3-chlorobenzyl)amino]-9-cyclopentylpurine dihydrochloride], the IC50 at cdk2/cyclin E is 0.032 µM; on cdk4/cyclin D1, 0.53 µM; in the assay with MDA-MB-231 (setting [1]) it was 1.1 µM; with MDA-MB-231 (setting [3]), 1.6 µM; in the assay with HT-29 (setting [2]), 2.4 µM; in the assay with HT-29 (setting [3]) it was 1.5 µM. Further, the IC50 in the assay with HCT-15 (setting [4]) amounted to 3.8 µM; in the assay with HCT-15 (setting [3]) it was 2.9 µM; in the assay on A549 (setting [8]) it was 0.92 µM; in the assay with A549 (setting [3]) it was 1.3 µM; in the assay with DMS-114 (setting [5]), 0.52 µM; in the assay with DMS-114 (setting [3]), 0.63 µM. Further, the results for the IC50 with DU 145 (setting [7]) and with DU 145 (setting [3]) were 0.8 µM and 0.92 µM, respectively.

`N[C@H]1CC[C@H](Nc2nc(NCC3CC3)c3ncn(C4CCCC4)c3n2)CC1` [Example 34, 2-[Trans-(4-aminocyclohexyl)amino]-6-[(cyclopropyl)methylamino]-9-cyclopentylpurine dihydrochloride]: the IC50 against cdk2/cyclin E is 0.024 µM; at cdk4/cyclin D1 it was 0.93 µM and 0.64 µM; in the assay on MDA-MB-231 (setting [1]) it was 1.2 µM; with MDA-MB-231 (setting [3]) it was 2.2 µM; in the assay on HT-29 (setting [2]), 1.3 µM; in the assay on HT-29 (setting [3]) it was 2.6 µM. In addition, the IC50 worked out at 3.3 µM with HCT-15 (setting [4]); 3.4 µM in the assay with HCT-15 (setting [3]); 1.9 µM in the assay on A549 (setting [8]); 1.2 µM with A549 (setting [3]); 1.5 µM with DMS-114 (setting [5]); 1.4 µM in the assay on DMS-114 (setting [3]). For the same molecule, the IC50 in the assay on DU 145 (setting [7]) worked out at 0.97 µM; in the assay with DU 145 (setting [3]), 1.7 µM.

Regarding `N[C@H]1CC[C@H](Nc2nc(NCCc3ccc(O)cc3)c3ncn(C4CCCC4)c3n2)CC1` [Example 55, 2-[Trans-(4-aminocyclohexyl)amino]-6-[(4-hydroxyphenyl)ethylamino]-9-cyclopentylpurine. dihydrochloride], the IC50 against cdk2/cyclin E was 0.089 µM; at cdk4/cyclin D1 it was 2.1 µM and 1.1 µM and 0.7 µM; with MDA-MB-231 (Homo sapiens, MDA-MB-231, values marked * (mark not explained)) it was 5.2 µM; with MDA-MB-231 (setting [9]), 5.6 µM; with MDA-MB-435 (Homo sapiens, MDA-MB-435, values marked * (mark not explained)) it was 6.7 µM; in the assay on MDA-MB-435 (setting [9]), 7.2 µM. For the same molecule, the IC50 in the assay with HT-29 (Homo sapiens, HT-29, values marked * (mark not explained)) was 7 µM; in the assay on HT-29 (setting [9]) it was 6.1 µM; in the assay with Colo-205 (Homo sapiens, COLO 205, values marked * (mark not explained)), 4.3 µM; with Colo-205 (setting [9]) it was 4.2 µM; in the assay with A549 (Homo sapiens, A549, values marked * (mark not explained)), 7.3 µM; in the assay on A549 (setting [9]), 6.4 µM. In addition, the IC50 in the assay with DMS-114 (Homo sapiens, DMS-114, values marked * (mark not explained)) came to 7 µM; in the assay on DMS-114 (setting [9]) it was 4.8 µM; in the assay with PC-3 (Homo sapiens, PC-3, values marked * (mark not explained)) it was 4.2 µM; in the assay with PC-3 (setting [9]), 4 µM; in the assay with DU 145 (Homo sapiens, DU-145, values marked * (mark not explained)), 6.7 µM; with DU 145 (setting [9]), 7.2 µM.

(Values after US6413974B1, “6,9,-disubstituted 2-[trans-(4-aminocyclohexyl) amino] purines” (Aventis Pharmaceuticals Inc., priority 1998, dated 2002).)
